Reference: a melting point compilation (Tetko et al.; mined from patent text by program, amines drawn as free bases though some values may be those of a salt)

SMILES	melting point [°C]
Nc1c([N+](=O)[O-])sc2ccc([N+](=O)[O-])cc12	288 to 291
O=C(Nc1ccc(-c2ccc(C(=O)N3CCN4CCC3CC4)o2)cc1)Nc1cccc(F)c1	230
CC(=O)OC/C(=C(\C(=O)N(C)CC(C)(C)SN=O)c1ccc(F)cc1)c1ccc(S(C)(=O)=O)cc1	37 to 38
Nc1cccc2nc3c(nc12)N1CCCCC1CO3 (stereo not drawn)	207 to 209
N=C(Nc1ccc(Cl)cc1)NC1CCCCC1	187 to 190
COc1ccc(C(=O)CCCN2CCC(OC(=O)c3cc(Cl)c(N)c4c3OCC4)CC2)cc1OC	156
O=C(NCCN1CCC(O)(c2ccc(Cl)cc2)CC1)c1cccs1	153
CNC(=O)Nc1snc(N2CCCC2)c1C#N	239
Cn1cc2c(=O)[nH]c(=S)[nH]c2n1	200
CC(C)C(C)(C#N)N1C(=O)c2ccc3ccn(C)c3c2C1=O (stereo not drawn)	134 to 138
CC1(C)Cc2c(c(N3CCOCC3)nc3sc4c(NCC(=O)N5CCOCC5)ncnc4c23)CO1	209 to 210
COc1ccc(NC(=O)c2ccc(F)c(F)c2)cc1NS(=O)(=O)c1ccc(N)cc1	229 to 231
O=C(C[C@@H](CCCC1CCCCC1)c1nc(Cn2cncn2)no1)NO	118 to 120
COc1cc(C(=O)CBr)cc(Cl)c1OC	76.5 to 78
COc1ccc(C(=O)Cc2c(Cl)cncc2Cl)c2c1CC1(CCCC1)O2	70 to 72
CN(C)c1ccc(NC(=O)N(CC(C)(C)C)C[C@H]2CC[C@H](CN(CC(C)(C)C)C(=O)Nc3ccc(N(C)C)cc3)CC2)cc1	178 to 181
CC(C)(C)OC(=O)CN1CCC(=O)N(CC(=O)OC(C)(C)C)CCC1=O	180
Cc1cc(C2=NN=C(C#N)Cc3cc4c(cc32)OCO4)ccc1[N+](=O)[O-]	211 to 214
CC(C)N(C[C@@H]1CCC[C@H](CN(C(=O)Nc2ccc(N(C)C)cc2)C(C)C)C1)C(=O)Nc1ccc(N(C)C)cc1	139 to 141
Cc1ccc(C2(O)c3c(C)c(N)c(C)c(C)c3OC2(C)C)cc1 (stereo not drawn)	165 to 166
CN(Cc1cc2c(-c3ccccc3)c(CC(=O)Nc3ccc(Cl)cc3C(F)(F)F)c(=O)oc2cc1Cl)C(=O)c1ccccc1	215 to 216

SMILES	melting point [°C]
CN(C)C1(c2ccccc2)CC=C(c2cn(S(=O)(=O)c3ccccc3)c3ccccc23)CC1 (stereo not drawn)	165 to 167
OCC(Nc1nc(-c2ccc(Br)cc2)cs1)C(F)(F)F (stereo not drawn)	133 to 134
CC(=O)Nc1nc2ccc(S(=O)(=O)n3c(COC(C)(C)C(=O)O)cc4cc(C(F)(F)F)ccc43)cc2s1	144 to 146
Cc1cc(O)c(S(=O)(=O)C(C)(C)C)c(=O)o1	119 to 120
O=C(O)c1ccc(OCCCCCCO)cc1	132 to 135
N#CC(C#N)=C1N(CCCN2CCCCC2)CCN1C1CCN(Cc2ccccc2)CC1	156 to 158
CNC(=O)NC1CC(N)(C(=O)O)C2C(C(=O)O)C12 (stereo not drawn)	> 275
C=C(C)CN(CC(=O)O)c1c(N)c(=O)c1=O	184 to 186
CC(C)n1cc(C(=O)Nc2nncs2)c2ccc(Cl)cc21	274 to 275
CSC1=C(Sc2ccc(C)cc2)CC2C3CCC4=CC(=O)C=CC4(C)C3(F)C(O)CC12C (stereo not drawn)	205 to 206
O=C(NS(=O)(=O)C(F)(F)F)c1cccc([N+](=O)[O-])c1	80 to 83
CCc1c(Cl)cc(C(C)(C)C)c(O)c1-c1nc2ccc(S(=O)(=O)C(F)(F)F)cc2c(=O)[nH]1	285 to 286
CCCCn1c(=O)c2cn(S(=O)(=O)c3ccc(C(F)(F)F)cc3)nc2n(CCCC)c1=O	151 to 153
Cc1noc(NS(=O)(=O)c2ccc(Nc3ccc([N+](=O)[O-])cc3[N+](=O)[O-])cc2)c1C	187
OC1CSC(Oc2ccc(-c3cncnc3)cc2)C(O)C1O (stereo not drawn)	196 to 200
CCOC(=O)c1cc(F)ccc1[N+](=O)[O-]	< 50
O=[N+]([O-])c1cc(F)c(O)c(F)c1	98.4 to 101
C#CCN(C(=O)C(F)(F)F)[C@H]1CCc2ccc([N+](=O)[O-])cc21	83 to 85
CCCc1c(OCC(O)CSc2ccc(C(=O)CCC(=O)O)c(O)c2)ccc(C(C)=O)c1O (stereo not drawn)	150
Nc1ccc(C(F)(F)F)cc1C(=O)O	191 to 192
Cc1ccc(Br)c(S(C)(=O)=O)c1	110 to 114

Further lines, results first:

melting point [°C]	SMILES
> 250	Oc1cc(C(O)C2CCCCC2)c2ccccc2n1 (stereo not drawn)
236 to 238	O=C1Nc2c(ccc3ccccc23)SC1c1ccc(Cl)cc1 (stereo not drawn)
265 to 267	FC(F)(F)c1cccc2c1Sc1ccccc1NC2=S
193 to 195	c1csc(-c2cccc3c(-c4cccs4)cccc23)c1
170 to 171	COc1ccc(C(=O)Nc2ccccc2)cc1NC(=S)Nc1ccc(OC)c(OC)c1
114 to 116	CCC(Oc1cccc([N+](=O)[O-])c1)C(=O)NCc1ccccc1 (stereo not drawn)
46 to 47	O=C(NCCO)c1cc(-c2cccc3cc(Cc4cccc(C(F)(F)F)c4)sc23)ncn1
202 to 204	N#Cc1cc(-c2ccc(Cl)cc2)c(Br)[nH]1
180 to 181	CN=C1N(c2c(C)cccc2C)CCN1c1c(C)cccc1C
240	COC(=O)c1cccc(-c2csc(N=C(N)N)n2)n1
85	CCOC(=O)c1cccc(NC(=O)NCC(=O)N2[C@@H](c3ccccc3)SC[C@H]2C(=O)OC(C)(C)C)c1
79 to 80	C1=CC(CCC2c3ccccc3-c3ccccc32)c2ccccc21 (stereo not drawn)
149 to 151	Cn1nc(SC2c3cc(C#N)ccc3CC(C)(C)C2O)ccc1=O (stereo not drawn)
120 to 122	CC(C)Oc1cc(CCCOc2ccc3ccccc3c2CC(=O)O)n(Cc2ccc(Cl)cc2Cl)n1
229 to 233	O=S1(=O)c2ccccc2-c2ccc(F)cc21
96 to 103	CC(C)(C#N)Cc1cccc(-c2cccc(CC(C)(C)C#N)c2)c1
240 to 244	NC(=O)[C@@H]1[C@H](Nc2ccnc3[nH]c(-c4cccc(CN5CCOCC5)c4)nc23)[C@H]2C=C[C@@H]1C2
209 to 219	CSc1nc(-c2ccc(C#N)cc2)cn1-c1ccc(C#N)cc1
159 to 161	COc1ccc(-c2cc(C)cn2-c2ccc(S(C)(=O)=O)cc2)cc1

melting point [°C]	SMILES
97 to 98	O=C(Nc1ccccc1)C(Br)(Br)Br
262 to 264	O=C(O)c1cccnc1Nc1cccc([N+](=O)[O-])c1
134	COc1nc(SC)cc2cnc(-c3ccccc3)n12
236 to 237	COC(=O)Nc1ccccc1C(=O)Nc1nnn[nH]1
202 to 204	COc1cccc(/C=C/C2=CCN(Cc3nc4ccccc4[nH]3)CC2)c1
132 to 133	Fc1cc(F)c(-c2c(F)nnc(F)c2-c2ccc(Br)cc2)c(F)c1
184 to 185	O=C(Nc1c(C(O)(C(F)(F)F)C(F)(F)F)ccc2ccccc12)c1cccc(Br)c1
157 to 160	CCN(C(=O)c1ccccc1C(=O)c1ccccc1)C(C)(C)CNS(=O)(=O)c1ccc(C)cc1
59 to 61	N#CCc1cc2ccccc2s1
160 to 161	COc1ccc(C=Cc2nnc(C(Br)(Br)Br)o2)cc1
72	CC(C)(C)OC(=O)[C@@H](Cc1ccccc1)NC(=O)C1CN(c2ccc(C#N)cc2)C(=O)O1 (stereo partly drawn)
145 to 146	COc1cc2c(c(Cl)c1Cl)C(=O)C(C)(c1cccs1)C2 (stereo not drawn)
115 to 116	CN(CCN=C(NC#N)NCCSCc1csc(NC(=N)N)n1)CCC(c1ccccc1)c1ccccn1 (stereo not drawn)
> 260	O=C(c1ccc2ncccc2c1)c1ccc2[nH]c(=O)nc(-c3cccc(Cl)c3)c2c1
128 to 130	O=C(OCc1ccccc1)N1CCC(O)(CNc2ccc(Cl)c(Cl)c2)CC1
> 220	O=C(OCc1ccccc1)C1CC(=C2NC(=O)N(c3ccccc3)C2=O)c2ccc(Cl)cc2N1 (stereo not drawn)
294 to 295	O=C1NC(=O)c2c1c(-c1ccccc1Cl)cc1c2cc(C(=O)O)n1CCCBr
135 to 138	O=[N+]([O-])c1c(NC2CC2)ncnc1N1CCc2ccccc2CC1
136 to 137	COc1cc(C=O)ccc1OCc1nc(-c2cccc(OS(C)(=O)=O)c2)oc1C

melting point [°C]	SMILES
134 to 136	COC(=O)c1ccc(-c2noc(C)n2)s1
84 to 101	COc1cc2c(cc1Nc1ncc(Cl)c(Nc3ccc(N4CCOCC4)cc3OC)n1)CCN(C(=O)CN(C)C)CC2
225 to 227	COc1cc(Cl)nc(NC(=O)NS(=O)(=O)c2ccccc2-c2nnnn2C)n1
214 to 216	Nc1nc(N)c2cc(Cc3ccc(F)cc3)ccc2n1
115 to 120	CCC#COc1ccc(S(=O)(=O)NC(CSc2ccccn2)C(=O)NO)cc1 (stereo not drawn)
220 to 223	O=C(NCCN1CCN=C1c1ccccn1)Nc1ccc(C(=O)O)cc1
239 to 240	Cc1nc2c(N)nc3ccccc3c2n1CCCNC(=O)C(C)C
120 to 121	CCc1nccn1N=Cc1ccc(N(C)C)cc1
145 to 146	CS(=O)(=O)c1ccc(-n2cnc(Cl)c2-c2ccccc2)cc1
78 to 80	COc1ccc(C(=O)OC2C(OC(C)=O)C=C(C)C(=O)CC2(C)C)cc1 (stereo not drawn)
79 to 81	COc1cc(C(O)c2cccs2)cc([N+](=O)[O-])c1OC (stereo not drawn)
210 to 212	O=S(=O)(c1ccccc1)n1nc(-c2ccncc2)nc1-c1ccncc1
125 to 127	CCCOC(=O)Nc1nc2ccccc2c2c1nc(COCC)n2CC(C)(C)NS(C)(=O)=O
101 to 102	FC(F)(F)c1nc(-c2ccc(Cl)cc2)c(-c2ccc(Cl)cc2)s1
179 to 206	CCCCCC(=O)Oc1c(-c2ccc(-c3ccccc3)cc2)nc2ccc(F)cc2c1C(=O)O
120 to 121	Clc1cnc2c(-c3ccccc3)nc(-c3ccccc3)nc2c1
126	CCCCc1nc2ccc(C3=NN4CCCC4C3)cc2c(=O)n1Cc1ccc(-c2ccccc2-c2nnn[nH]2)cc1 (stereo not drawn)
129 to 131	O=S(=O)(N[C@H](CO)[C@@H](c1ccccc1)C(F)(F)F)c1ccc(Cl)cc1
